According to US20080146555A1, “Uses of Kinase Inhibitors and Compositions Thereof” (GPC Biotech, Inc, priority 2004, published 2008):
pIC50: −log10 of the molar value. Structures can show the parent of a compound that is named as a salt. Where two headings read alike, the source gives them in different places.

What was measured:
HCT-116 cells = test: Calcein AM viability assay, HCT-116; format: cell-based; details: Homo sapiens
How it was run: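 Cells (HCT-116 1,000, IMR90 4,000 per well) adhered overnight, then received 7 doses from 0 to 250 nM for 72 h at 37 °C. Viability read as calcein fluorescence after 75 min with Calcein AM; IC50 values, with protein-adjusted values also obtained in HCT-116.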

Cdk3 = Cdk3 (Homo sapiens, UniProt Q00526); test: Cdk3 inhibition; format: biochemical
Cdk3, sequence (Q00526 whole entry, species assumed): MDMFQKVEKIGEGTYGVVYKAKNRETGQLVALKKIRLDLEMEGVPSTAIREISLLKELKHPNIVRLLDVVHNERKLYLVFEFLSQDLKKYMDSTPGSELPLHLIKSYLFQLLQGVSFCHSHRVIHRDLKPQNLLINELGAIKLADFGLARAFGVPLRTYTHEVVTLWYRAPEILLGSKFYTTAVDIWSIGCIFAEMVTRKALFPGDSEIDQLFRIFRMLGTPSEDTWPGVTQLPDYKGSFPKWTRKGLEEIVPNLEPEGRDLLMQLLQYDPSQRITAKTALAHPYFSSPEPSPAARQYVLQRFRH
Cdk3, sequence (P24864 whole entry partner, species assumed): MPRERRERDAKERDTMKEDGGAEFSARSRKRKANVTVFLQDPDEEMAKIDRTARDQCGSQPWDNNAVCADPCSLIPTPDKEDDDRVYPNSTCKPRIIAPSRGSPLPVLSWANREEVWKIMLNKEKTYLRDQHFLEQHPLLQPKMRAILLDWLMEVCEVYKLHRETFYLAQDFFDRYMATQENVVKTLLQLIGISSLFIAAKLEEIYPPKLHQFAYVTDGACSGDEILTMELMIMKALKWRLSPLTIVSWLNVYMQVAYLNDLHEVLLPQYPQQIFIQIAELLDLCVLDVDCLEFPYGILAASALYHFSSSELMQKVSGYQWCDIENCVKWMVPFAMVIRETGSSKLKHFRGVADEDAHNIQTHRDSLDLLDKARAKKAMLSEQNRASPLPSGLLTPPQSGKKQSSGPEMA
Description: (§1) Further inhibition results for subject compounds of the invention against other CDKs and further kinases are shown in Table 5, Table II and described in Example 6.
(§2) Table 3, Table 4, Table 5 and Table II show the results obtained for inhibition of a broad range of such kinases for subject compounds of the invention.

Cdk4 = Cdk4 (Homo sapiens, UniProt P11802); test: Cdk4 inhibition; format: biochemical
Cdk4, sequence (P11802 whole entry, species assumed): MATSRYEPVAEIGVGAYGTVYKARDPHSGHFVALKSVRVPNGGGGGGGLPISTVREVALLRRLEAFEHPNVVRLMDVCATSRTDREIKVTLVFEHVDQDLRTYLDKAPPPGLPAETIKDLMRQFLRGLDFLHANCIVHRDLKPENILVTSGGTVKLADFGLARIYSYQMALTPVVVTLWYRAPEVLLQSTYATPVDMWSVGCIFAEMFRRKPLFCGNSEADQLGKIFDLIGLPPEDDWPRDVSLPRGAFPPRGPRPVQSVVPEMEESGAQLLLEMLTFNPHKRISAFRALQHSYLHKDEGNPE
Cdk4, sequence (P24385 whole entry partner, species assumed): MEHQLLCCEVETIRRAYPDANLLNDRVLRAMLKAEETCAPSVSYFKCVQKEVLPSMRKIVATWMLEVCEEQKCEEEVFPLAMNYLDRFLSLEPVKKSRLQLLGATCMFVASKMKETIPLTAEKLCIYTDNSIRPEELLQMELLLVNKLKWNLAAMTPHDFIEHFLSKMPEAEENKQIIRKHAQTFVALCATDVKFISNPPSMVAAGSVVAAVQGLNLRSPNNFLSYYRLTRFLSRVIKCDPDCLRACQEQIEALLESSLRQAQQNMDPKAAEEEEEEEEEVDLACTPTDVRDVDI
Description: as §1, §2

NCI-Adr resistant = test: SRB cytotoxicity, P-glycoprotein expressing cells with and without verapamil; format: cell-based; details: for pIC50: Homo sapiens, NCI/ADR-RES, 72 h, SRB; for relative resistance, NCI-Adr resistant −/+ verapamil: individual experiments; for RR (relative resistance) NCI-Adr resistant −/+ verapamil: ratio of mean IC50
Protocol: In these experiments, the P-glycoprotein expressing NCI-Adr resistant subline (Vickers et al., 1989. Mol Endocrinology 3 (1):157-164) was used. […] Briefly, cells were plated in 96 well dishes 24 hours prior to compound addition. Where noted, they were exposed to verapamil for 4 hours prior to compound addition and then throughout the treatment period (72 hours). The assay was terminated with the addition of cold TCA to a final concentration of 10% and the plates were incubated for one hour at 4° C. The plates were then washed 5 times with water and 100 μl of a Sulforhodamine B solution (4%) was added to each well. The plate was then incubated for 10 minutes at room temperature before removal of unbound dye by washing with 1% acetic acid.

[1] = system: KU812 leukemia cells (Bcr-Abl); test: Proliferation of KU812 cells, calcein assay by flow cytometry; format: cell-based; details: Homo sapiens, KU812, 72 h, read-out: KU812 cells IC50 (proliferation)
Protocol: The proliferation of KU812 cells was assayed using the calcein viability assay described in Assay 3 but adapted for quantification by flow cytometry, briefly as follows: cells were recovered from sub-confluent plates by trypsinization and re-plated at a density of 1,000 cells/well in 24 well plates and incubated 24 hours to allow adherence. The media (RPMI-1640 supplemented with 10% FCS and Pen/Strep) was aspirated from each well and replaced with media containing the compound at a range from 0 to 0.250 μM. The plates were incubated for 3 days corresponding to approximately three cell cycles. Cellular viability was determined with the Calcein AM assay as follows. The cells were washed twice in PBS and incubated with 5 μM Calcein AM/PBS for 75 minutes before determining fluorescent units with a fluorescent plate reader. The Calcein AM assay was adapted for the flow cytometer by including an additional 1:16,000 dilution of the Calcein AM in PBS of which 200 ul was added to each sample of cells.

DNA replication = test: Inhibition of DNA replication; format: cell-based; details: 24 hour incubation
[2] = HCT-116, non-protein adjusted, Table 4, read-out: HCT-116 viability IC50
[3] = HCT-116, text b600, read-out: HCT-116 protein-adjusted viability IC50
[4] = HCT-116, text b600, read-out: HCT-116 viability IC50

| Structure (SMILES) | pIC50 (HCT-116 cells; [2]) | pIC50 (HCT-116 cells; [3]) | pIC50 (HCT-116 cells; [4]) | pIC50 (Cdk3) | pIC50 (Cdk4) | pIC50 (NCI-Adr resistant; verapamil 12.5 μg/ml) | pIC50 (NCI-Adr resistant; without verapamil) | relative resistance, NCI-Adr resistant −/+ verapamil (NCI-Adr resistant) | RR (relative resistance) NCI-Adr resistant −/+ verapamil (NCI-Adr resistant) | pIC50 ([1]; 3 days, calcein AM, flow cytometry) | pIC50 (DNA replication) | pIC50 [1] |
| --- | --- | --- | --- | --- | --- | --- | --- | --- | --- | --- | --- | --- |
| COCCN1CCN(Cc2ccc(-c3n[nH]c4c3C(=O)c3c(NC(=O)NN5CCOCC5)cccc3-4)cc2)CC1 [Compound B16, N-[3-(4-{[4-(2-methoxyethyl)piperazinyl]methyl}phenyl)-4-oxoindeno[2,3-d]pyrazol-5-yl](morpholin-4-ylamino)carboxamide dihydrochloride] | > 8.00 | > 6.30 | > 8.00 | > 8.30 | < 7.00 | 7.10 | 5.73 | about 25 fold | 23.4 | 7.27 | 8.00 |  |
| CC(C)N1CCN(C(=O)COc2ccc(-c3n[nH]c4c3C(=O)c3c(NC(=O)NN5CCOCC5)cccc3-4)cc2)CC1 [Compound A37] | > 7.00 | > 6.30 | > 7.30 | > 8.30 | > 7.30 | 6.87 | 5.46 | about 25 fold | 25.4 |  | 7.80 | 7.07 |
